Molecular target: T1, human PTP-1B (Homo sapiens, UniProt P18031)
T1 construct: recombinant human PTP-1B[1-298] or PTP-1B[1-322]
T1 sequence (P18031 1-298 limits assumed): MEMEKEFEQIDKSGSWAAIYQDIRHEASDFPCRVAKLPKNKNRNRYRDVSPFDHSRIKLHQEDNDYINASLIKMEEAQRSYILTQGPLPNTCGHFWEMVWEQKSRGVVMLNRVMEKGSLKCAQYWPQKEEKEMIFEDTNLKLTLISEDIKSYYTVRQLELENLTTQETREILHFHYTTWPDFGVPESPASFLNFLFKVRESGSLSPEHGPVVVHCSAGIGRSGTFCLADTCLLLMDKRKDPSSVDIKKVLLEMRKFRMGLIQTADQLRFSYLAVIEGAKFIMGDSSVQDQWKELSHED
Assay: PTP-1B inhibitory activity in vitro (IC50)
Assay type: biochemical
Conditions: inhibitory activity to human PTP-1B; which of the described assay formats was used is not stated
Method: Assessment of human PTP-1B (hPTP-1B) activity in the presence of various agents is determined by measuring the amount of inorganic phosphate released from a phosphopeptide substrate using a 96-well microtiter plate format. The assay (100 μL) is performed in an assay buffer comprised of 50 mM TRIS (pH 7.5), 50 mM NaCl, 3 mM DTT at ambient temperature. The assay is typically performed in the presence of 0.4% dimethyl sulfoxide (DMSO). However, concentrations as high as 10% are used with certain poorly soluble compounds. […] Inorganic phosphate, a product of the enzyme reaction, is quantitiated after 15 min as the green color resulting from complexing with the Malichite reagent and is determined as an A620 using a Molecular Devices (Sunnyvale, Calif.) SpectraMAX Plus spectrophotometer. […] Activity is defined as the net change in absorbance resulting from the activity of the uninhibited hPTP-1B[1-411] minus that of a tube with acid-inactivated hPTP-1B[1-411].
Alternatively, the assessment of human PTP-1B activity in the presence of various agents may be determined by measuring the hydrolysis products of known competing substrates. For example, cleavage of substrate para-nitrophenylphosphate (pNPP) results in the release of the yellow-colored para-nitrophenol (pNP) which can be monitored in real time using a spectrophotometer. […]

Row | SMILES | IC50
1 | CS(=O)(=O)Oc1c(Cl)cccc1Cc1ccc(N2CC(=O)NS2(=O)=O)c(O)c1 [Example No. 52-1, Methanesulfonic acid 2-chloro-6-[3-hydroxy-4-(1,1,4-trioxo-1,2,5-thiadiazolidin-2-yl)-benzyl]-phenyl ester] | 126 nM
2 | COc1ccc(Cc2ccc(N3CC(=O)NS3(=O)=O)c(O)c2)c(OS(C)(=O)=O)c1 [Example No. 52-3, Methanesulfonic acid 2-[3-hydroxy-4-(1,1,4-trioxo-1,2,5-thiadiazolidin-2-yl)-benzyl]-5-methoxyphenyl ester] | 133 nM

Reference: patent publication US8119666B2, “1,2,5-thiazolidine derivatives useful for treating conditions mediated by protein tyrosine phosphatases (PTPase)” (Novartis AG, priority 2005, dated 2012)
